For 89 molecules, melting point results are on record in a melting point compilation (Tetko et al.; mined from patent text by program, amines drawn as free bases though some values may be those of a salt).

`CCCCc1nc2c(N)nc3cc(/C=C/C(=O)OC)ccc3c2n1CC(C)C`: the melting point fell in the range of 193 to 194 °C.

Molecule `CCC(c1cccs1)c1c(O)c2c(oc1=O)CCCCCC2` (centres undefined) showed a melting point of 163 to 165 °C.

The molecule `O=C(O)C1CCCN1S(=O)(=O)c1ccc(F)cc1` (centres undefined) had a melting point of 145 to 148 °C.

For `CN=C(C)c1cc(Oc2ccc(C(F)(F)F)cc2Cl)ccc1[N+](=O)[O-]`, the melting point is 133 to 137 °C.

`Cc1c(SCCN2CCc3ccccc3C2)ccnc1CSc1nc2ncccc2[nH]1`: the melting point worked out at 180 °C.

The molecule `CN1C(=O)C(CCCN2CCN(c3ccc(F)cc3)CC2)Sc2ccccc21` (centres undefined) registered a melting point of 103 to 104 °C.

`O=[N+]([O-])c1ccccc1-c1oc2ccc(CBr)cc2c1Br` registered a melting point of 118 °C.

`C1=CCC2=C3C(=NC2=C1)SCCC3CNCc1ccccc1` (centres undefined) yielded a melting point of 118 °C.

Molecule `O=C1NN=C(c2cc3ccccc3o2)CO1` had a melting point of 209 to 211 °C.

Molecule `O=C1C(O)OCN1c1cccc(C(F)(F)F)c1` (centres undefined) came in with a melting point of 75 to 76 °C.

The molecule `CCCCOc1cc(/C=C(\OCC)C(=O)O)ccc1OCCc1ccc(OS(=O)(=O)CCCC)cc1OC` returned a melting point of 90 °C.

`COc1ccc(Oc2ccc3ccccc3n2)cc1` had a melting point of 96.5 to 98 °C.

`COc1cccc(CNc2ncnc3c2sc2nc(N4CCOCC4)c4c(c23)CC(C)(C)CC4)c1OC` showed a melting point of 219 to 220 °C.

Molecule `CCCCCC1=CCC(c2cc(F)cc(F)c2)C=C1` (centres undefined) registered a melting point of 31 °C.

On to `COC(=O)CCc1sc(Sc2ccc(O)cc2)nc1-c1ccccc1`, for which the melting point was in the range of 153 to 155 °C.

Turning to `O=C1COCCN1c1ccc(N2C[C@@H](CI)OC2=O)cc1`, the melting point is 154 to 157 °C.

`CCCCCC(=O)OCc1nccc(Oc2ccc3c(C(=O)OCC)csc3c2)n1` showed a melting point of 51 °C.

Molecule `COC(=O)c1ccc(CC(C)(C)NCC(O)c2cc3ccccc3o2)cc1` (centres undefined) displayed a melting point of 127 to 129 °C.

In turn, `CCC(CC)OC(=O)N1CCC(c2nc3cc(-c4ccc(-n5cnnn5)cc4F)ccc3o2)CC1` returned a melting point of 114 to 117 °C.

`O=C1N=CC(OCC2CC2)(C(F)(F)F)c2cc(F)ccc2N1` (centres undefined) yielded a melting point of 198 to 199 °C.

The molecule `O=C(OCCOCc1ccccc1)c1cc(Oc2ccc(C(F)(F)F)cc2Cl)ccc1[N+](=O)[O-]` returned a melting point of 85 °C.

For the molecule `Cc1nc(Nc2ccc(F)cc2)nc(O)c1C`, the melting point came to 256 °C.

Turning to `O=C(Nc1ccc(O)c(C(=O)O)c1)c1ccc([N+](=O)[O-])cc1`, the melting point was in the range of 270 to 271 °C.

Molecule `Cn1nc(S(=O)(=O)c2ccccc2)c2cc(N3CCN(Cc4ccccc4)CC3)ccc21` gave a melting point of 195 to 197 °C.

`COC(=O)[C@H](Cc1ccccc1)NC(=S)Cc1cc(C)ccc1C`: the melting point fell in the range of 63.5 to 64 °C.

The molecule `COC(=O)C=Cc1ccc(-c2ccc(C=CC(=O)OC)cc2C(F)(F)F)c(C(F)(F)F)c1` displayed a melting point of 158 to 161 °C.

As for `CCC(=O)NC(=O)c1cc([N+](=O)[O-])cnc1C`, the melting point lay in the range of 171 to 173 °C.

For `Nc1cc(Sc2cccc3cnccc23)c(Cl)cc1[N+](=O)[O-]`, the melting point is over 270 °C.

`COc1ccc2cccc(CCOS(=O)(=O)c3ccccc3)c2c1` returned a melting point of 61.8 to 63 °C.

Turning to `CC(O)Cn1nc2c3c(ccc([N+](=O)[O-])c31)CCC2` (centres undefined), the melting point fell in the range of 144 to 146 °C.

`COC(=O)COc1ccc(O)c(C(C)(C)C)c1` registered a melting point of 87 to 89 °C.

As to `Cc1ccccc1C(=O)Nc1ccc(C(=O)N2Cc3ccc(Cl)n3Cc3ccccc32)cc1`, the melting point fell in the range of 185 to 187 °C.

As to `COc1cc(C=C2NC(=O)NC2=O)cc(OC)c1O`, the melting point is 296 to 297 °C.

As for `O=c1[nH]c(=O)n(C2OC(CO)C(O)C2F)cc1I` (centres undefined), the melting point was in the range of 216 to 217 °C.

As to `Cc1ccc(-n2cccc2-c2ccc(S(N)(=O)=O)cc2)cc1`, the melting point fell in the range of 131 to 134 °C.

In the case of `CC(=O)Cc1nc2ccccc2s1`, the melting point lay within 118 to 119 °C.

In the case of `CC(=O)NCCn1c(=O)[nH]c2ccccc21`, the melting point came to 153 °C.

As for `CS(=O)(=O)c1ccc(-c2cnn(-c3ccc(F)cc3)c(=O)c2N2CCCCC2)cc1`, the melting point fell in the range of 80 to 100 °C.

For `CC(C)CC(CS)C(=O)NCC(=O)NC(CCCNC(=N)N)C(=O)O` (centres undefined), the melting point fell in the range of 132 to 146 °C.

On to `O=C(NC1CCCCC1=Cc1ccccc1)C(F)(F)F` (centres undefined), for which the melting point lay within 109 to 110 °C.

For `Cc1cc(C(F)(F)F)n2nc(S(=O)(=O)Nc3c(Cl)cccc3Cl)nc2n1`, the melting point is 237 to 239 °C.

Regarding `COc1cc(C#N)c(N=C(C)N(C)C)cc1OC`, the melting point lay in the range of 94 to 96 °C.

`O=C(c1ccc(=O)[nH]c1)n1ccnc1` showed a melting point of 200 °C.

In turn, `Cc1ccc(-c2cc(C(=O)C=Cc3ccc(C(=O)O)cc3)cc(C(C)(C)C)c2OCc2ccccc2)cc1` gave a melting point of 208 °C.

Regarding `CC(C)(C)OC(=O)Nc1ncc(C=O)s1`, the melting point was in the range of 173 to 175 °C.

`O=C1c2ccccc2C(=O)N1Cc1noc(-c2ncn3c2[C@@H]2CCCN2C(=O)c2sccc2-3)n1`: the melting point was 248 to 250 °C.

`COC(=O)c1ccc(-c2nnc(-c3ccc(C(F)(F)F)cc3)s2)cc1` registered a melting point of 218 to 219 °C.

In the case of `O=S1(=O)CCN(CC#Cc2cnc3c(c2)N(Cc2cc(Cl)ccc2Cl)CCN3)CC1`, the melting point was over 200 °C.

`CC(=O)N1CCn2c1c(-c1ccccc1)c1ncccc1c2=O`: the melting point was in the range of 229 to 231 °C.

The molecule `CSc1ccc2c(c1)C(=O)OC2=O` showed a melting point of 157 to 160 °C.

As for `CN(CCCNC(=O)c1ccccc1)CCCc1c[nH]c2ccccc12`, the melting point fell in the range of 73 to 74 °C.

For `CCCCCCCCCCCCCCCCCCCCOC(=O)Nc1ccc(NC(=O)NS(=O)(=O)c2ccc3ccccc3c2)cc1`, the melting point is 181 °C.

`O=C(O)c1ccc(NCC=Cc2ccccc2)cc1` yielded a melting point of 200 to 202 °C.

For the molecule `Cc1nn(-c2ccc(Br)cc2)cc1C(=O)N(CC(=O)O)c1ccc(OCC(C)(C)C)c(C#N)c1`, the melting point was 169 to 170 °C.

With `CCCCCCCCCCCCN1C(=O)CC(c2cc(C(C)(C)C)c(O)c(C(C)(C)C)c2)C1=O` (centres undefined), the melting point was in the range of 66 to 70 °C.

Molecule `CC1(c2ccc(OCc3ccccc3)c(Br)c2)C(=O)Nc2cc(Cl)cc(Cl)c2C1=O` (centres undefined) showed a melting point of 189 to 190 °C.

As to `O=C1Cn2nc(-c3ccc(F)cc3)c(-c3ccncc3)c2N1`, the melting point is over 250 °C.

As for `Cc1nc(Cl)c2cc3c(cc2n1)OCCO3`, the melting point lay within 168 to 170 °C.

With `Cn1cc(CS(C)(=O)=O)c(=O)c2cc(F)ccc21`, the melting point was 200 to 205 °C.

In the case of `CCCn1cc(Cc2ccc(C(=O)NS(=O)(=O)c3ccccc3C)cc2OC)c2cc(CC3CCCN(C)C3=O)ccc21` (centres undefined), the melting point was 120 to 128 °C.

As to `Nc1[nH]nc(-c2ccncc2)c1-c1ccc(F)cc1`, the melting point was in the range of 116 to 118 °C.

On to `C=Cc1ccc(Cc2ccc(C=C)cc2)cc1`, for which the melting point lay within 30 to 33 °C.

Molecule `CC(C#N)(COc1cc(F)c(F)cc1-c1ccsc1)NC(=O)c1ccc(OC(F)(F)F)cc1` (centres undefined) yielded a melting point of 128 to 130 °C.

In turn, `COc1cc(-c2cnc(N[N+](=O)[O-])[nH]c2=O)ccn1` displayed a melting point of 194 to 196 °C.

On to `CN1C(=O)C[C@@H](c2ccccc2)[C@H]1CO`, for which the melting point fell in the range of 93 to 95 °C.

On to `CCOC(=O)C(Cc1ccccc1)NC(=O)N1CCc2cc(S(=O)(=O)N3CCN(c4cccc(Cl)c4)CC3)ccc21` (centres undefined), for which the melting point was in the range of 123 to 124 °C.

As for `CC(C)(C)c1ccc2oc(C(O)COc3ccc(C(=O)O)cc3)cc2c1` (centres undefined), the melting point is 175 to 177 °C.

Molecule `CCc1cccc(CC)c1NC(=O)C1c2ccccc2COc2ccc(C)cc21` (centres undefined) had a melting point of 202 to 203 °C.

For the molecule `CCC(C(=O)c1ccc(C(C)C)c(OS(N)(=O)=O)c1C(C)C)c1ccccc1` (centres undefined), the melting point was 142 to 145 °C.

`COc1ccc(OC)c(CN[C@H]2[C@H]3CCN(C[C@@H]3C(N)=O)[C@H]2C(c2ccccc2)c2ccccc2)c1` (relative stereo) displayed a melting point of 127 to 129 °C.

`Cc1cnc(-c2ccc(C(F)(F)F)cc2)n1C` gave a melting point of 130 °C.

In turn, `O=C(NC1CCN(CCCCc2ccccc2)C1)C12CC3CC(CC(C3)C1)C2` (centres undefined) returned a melting point of 82 to 84 °C.

For `CN1CCN(c2c3c(nc4cc(Cl)ccc24)CCN(C)C3)CC1`, the melting point fell in the range of 114 to 115 °C.

Regarding `c1ccc2c(C3CN4CCC3CC4)c[nH]c2c1` (centres undefined), the melting point lay in the range of 214 to 216 °C.

For the molecule `Cc1c2c(cnc3ccccc32)nn1-c1ccccc1`, the melting point was in the range of 128 to 130 °C.

As to `CC(C)(C)CCCOC1CCC2C3C(=O)C=C4CC(O[Si](C)(C)C(C)(C)C)CCC4(C)C3CCC12C` (centres undefined), the melting point fell in the range of 155 to 156 °C.

The molecule `COc1c(Oc2ccc3ncc([N+](=O)[O-])n3n2)cnc(CNc2nc(C)nc(C)c2Cl)c1C` had a melting point of 230 to 232 °C.

In the case of `COC(=O)C1CCNC(=O)C1=O` (centres undefined), the melting point lay within 151 to 153 °C.

`CN(C)c1ccc(NC(=O)N(Cc2ccco2)C[C@H]2CCCC[C@H]2CN(Cc2ccco2)C(=O)Nc2ccc(N(C)C)cc2)cc1` registered a melting point of 106 to 110 °C.

`O=c1n(CCC#Cc2ccccn2)nc2ccccn12` showed a melting point of 95.5 to 96 °C.

On to `COc1ccccc1C(=O)OCC(=O)c1ccccc1`, for which the melting point fell in the range of 78 to 79 °C.

`CCC(=O)C(CC)=NNc1ccccc1[N+](=O)[O-]` showed a melting point of 96 to 97 °C.

In turn, `O=C1Nc2ccccc2Sc2c1cccc2C(F)(F)F` showed a melting point of 256 to 258 °C.

`CCCOc1cc(OCCC)c2c(=O)c(OCCC)c(-c3ccccc3)oc2c1` came in with a melting point of 90 to 93 °C.

In the case of `Cc1ccc(S(=O)(=O)N2CC[C@@H](C(C#N)(c3ccccc3)c3ccccc3)C2)cc1`, the melting point is 165 to 178 °C.

The molecule `O=C(OCc1ccccc1)C1CCc2[nH]c3ccccc3c2C1` (centres undefined) displayed a melting point of 104 to 105 °C.

Molecule `O=c1cc(-c2ccc3nccnc3c2)oc2ncccc12` returned a melting point of 272 to 275 °C.

`CN1CCOc2cc(S(=O)(=O)n3c(CCC(=O)O)cc4nc(Cl)ccc43)ccc21` had a melting point of 175 to 185 °C.

As for `CC1(C)Cc2c(Cl)cccc2C1N=CNC#N` (centres undefined), the melting point was 173 to 175 °C.
